Measured values taken from patent US10413535B2, “Pharmaceutical compositions comprising an integrin ALPHA4 antagonist for use in treating ocular inflammatory conditions” (AXEROVISION, INC., priority 2015, dated 2019).
Where two headings read alike, the source gives them in different places.

Assay: Toxicokinetics in 13-week topical ocular dog study
Conditions: beagle, in vivo, topical or ocular
Protocol: GW559090A was given to Beagle Dogs by topical ocular administration for 13 weeks. Animals were dosed six or twelve times per day, with one hour between doses. Treatment groups were: (1) vehicle (12 times a day), (2) 30 mg/mL/occasion given six times a day, (3) 50 mg/mL/occasion given six times a day, or (4) 50 mg/mL/occasion, given 12 times a day.
GW559090A was formulated as a stock solution in 25 mM phosphate buffer with 0.5% sodium chloride to provide a 50 mg/mL stock solution, which was used for administration to Groups 3 or 4, or further diluted with 25 mM phosphate buffer with 0.75% sodium chloride to provide a 30 mg/mL solution for administration to Group 2.
During the 13 week treatment period dogs received daily topical ocular doses of GW559090 or vehicle (12 times a day) at a constant dose volume of 0.06 mL (given 6 or 12 times a day, with one hour between doses). The test article formulation or vehicle was carefully dropped into the everted lower eyelid of the left eye from a suitable distance, to prevent contact of the positive displacement pipette with the eye. The lower and upper lids were then gently held together for approximately five seconds, to prevent loss of dose and aid even distribution across the external ocular surface. The un-dosed eye was not manipulated at any time and served as a within animal untreated control site.

Cc1ccccc1OCC(=O)N[C@@H](CC(C)C)C(=O)N[C@@H](Cc1ccc(OC(=O)N2CCC(C(N)=O)CC2)cc1)C(=O)O [GW559090, (2S)-3-[4-({[4-(Aminocarbonyl)-1-piperidinyl]carbonyl}oxy)phenyl]-2-[((2S)-4-methyl-2-{[2-(2-methylphenoxy)acetyl]amino}pentanoyl)amino]propanoic acid] gave an AUC(0-t) (female, 50 mg/mL/occasion, female dogs, 50 mg/mL, 12 daily doses, Week 13, read-out: AUC0-1) of 12.1 ng·h/mL, an AUC(0-t) (female, 50 mg/mL/occasion, female dogs, 50 mg/mL, 12 daily doses, Week 13, read-out: AUC0-24) of 146 ng·h/mL and a Cmax (female, 50 mg/mL/occasion, female dogs, 50 mg/mL, 12 daily doses, Week 13, read-out: Cmax) of 30.5 ng/mL. The AUC(0-t) (male, 30 mg/mL/occasion, male dogs, 30 mg/mL, 6 daily doses, Day 1, read-out: AUC0-1) was 3.82 ng·h/mL, the AUC(0-t) (male, 30 mg/mL/occasion, male dogs, 30 mg/mL, 6 daily doses, Day 1, read-out: AUC0-24) was 22.9 ng·h/mL and the Cmax (male, 30 mg/mL/occasion, male dogs, 30 mg/mL, 6 daily doses, Day 1, read-out: Cmax) was 7.41 ng/mL. The Tmax (male, 30 mg/mL/occasion, male dogs, 30 mg/mL, 6 daily doses, Week 4) was 15 min, the AUC(0-t) (male, 30 mg/mL/occasion, male dogs, 30 mg/mL, 6 daily doses, Week 4, read-out: AUC0-1) was 2.27 ng·h/mL and the AUC(0-t) (male, 30 mg/mL/occasion, male dogs, 30 mg/mL, 6 daily doses, Week 4, read-out: AUC0-24) was 13.6 ng·h/mL. For the same compound, the Cmax (male, 30 mg/mL/occasion, male dogs, 30 mg/mL, 6 daily doses, Week 4, read-out: Cmax) was 5.3 ng/mL, the Tmax (male, 30 mg/mL/occasion, male dogs, 30 mg/mL, 6 daily doses, Week 13) was 30 min and the AUC(0-t) (male, 30 mg/mL/occasion, male dogs, 30 mg/mL, 6 daily doses, Week 13, read-out: AUC0-1) was 3.81 ng·h/mL. It also gave an AUC(0-t) (male, 30 mg/mL/occasion, male dogs, 30 mg/mL, 6 daily doses, Week 13, read-out: AUC0-24) of 22.9 ng·h/mL, a Cmax (male, 30 mg/mL/occasion, male dogs, 30 mg/mL, 6 daily doses, Week 13, read-out: Cmax) of 7.03 ng/mL and a Tmax (male, 50 mg/mL/occasion, male dogs, 50 mg/mL, 6 daily doses, Day 1) of 4.98 min. The AUC(0-t) (male, 50 mg/mL/occasion, male dogs, 50 mg/mL, 6 daily doses, Day 1, read-out: AUC0-1) was 18.4 ng·h/mL, the AUC(0-t) (male, 50 mg/mL/occasion, male dogs, 50 mg/mL, 6 daily doses, Day 1, read-out: AUC0-24) was 110 ng·h/mL and the Cmax (male, 50 mg/mL/occasion, male dogs, 50 mg/mL, 6 daily doses, Day 1, read-out: Cmax) was 52.8 ng/mL. The Tmax (male, 50 mg/mL/occasion, male dogs, 50 mg/mL, 6 daily doses, Week 4) was 10 min, the AUC(0-t) (male, 50 mg/mL/occasion, male dogs, 50 mg/mL, 6 daily doses, Week 4, read-out: AUC0-1) was 8.74 ng·h/mL and the AUC(0-t) (male, 50 mg/mL/occasion, male dogs, 50 mg/mL, 6 daily doses, Week 4, read-out: AUC0-24) was 52.4 ng·h/mL. The Cmax (male, 50 mg/mL/occasion, male dogs, 50 mg/mL, 6 daily doses, Week 4, read-out: Cmax) was 24.2 ng/mL, the Tmax (male, 50 mg/mL/occasion, male dogs, 50 mg/mL, 6 daily doses, Week 13) was 15 min and the AUC(0-t) (male, 50 mg/mL/occasion, male dogs, 50 mg/mL, 6 daily doses, Week 13, read-out: AUC0-1) was 6.36 ng·h/mL. The AUC(0-t) (male, 50 mg/mL/occasion, male dogs, 50 mg/mL, 6 daily doses, Week 13, read-out: AUC0-24) was 38.2 ng·h/mL, the Cmax (male, 50 mg/mL/occasion, male dogs, 50 mg/mL, 6 daily doses, Week 13, read-out: Cmax) was 13.2 ng/mL and the Tmax (male, 50 mg/mL/occasion, male dogs, 50 mg/mL, 12 daily doses, Day 1) was 22.5 min. It also gave an AUC(0-t) (male, 50 mg/mL/occasion, male dogs, 50 mg/mL, 12 daily doses, Day 1, read-out: AUC0-1) of 36.6 ng·h/mL, an AUC(0-t) (male, 50 mg/mL/occasion, male dogs, 50 mg/mL, 12 daily doses, Day 1, read-out: AUC0-24) of 439 ng·h/mL and a Cmax (male, 50 mg/mL/occasion, male dogs, 50 mg/mL, 12 daily doses, Day 1, read-out: Cmax) of 69.7 ng/mL. For the same compound, the Tmax (male, 50 mg/mL/occasion, male dogs, 50 mg/mL, 12 daily doses, Week 4) was 15 min, the AUC(0-t) (male, 50 mg/mL/occasion, male dogs, 50 mg/mL, 12 daily doses, Week 4, read-out: AUC0-1) was 11.8 ng·h/mL and the AUC(0-t) (male, 50 mg/mL/occasion, male dogs, 50 mg/mL, 12 daily doses, Week 4, read-out: AUC0-24) was 142 ng·h/mL. It also gave a Cmax (male, 50 mg/mL/occasion, male dogs, 50 mg/mL, 12 daily doses, Week 4, read-out: Cmax) of 23.8 ng/mL, a Tmax (male, 50 mg/mL/occasion, male dogs, 50 mg/mL, 12 daily doses, Week 13) of 15 min and an AUC(0-t) (male, 50 mg/mL/occasion, male dogs, 50 mg/mL, 12 daily doses, Week 13, read-out: AUC0-1) of 10.2 ng·h/mL. The AUC(0-t) (male, 50 mg/mL/occasion, male dogs, 50 mg/mL, 12 daily doses, Week 13, read-out: AUC0-24) was 122 ng·h/mL and the Cmax (male, 50 mg/mL/occasion, male dogs, 50 mg/mL, 12 daily doses, Week 13, read-out: Cmax) was 26.8 ng/mL.
